Reference: patent US8841413B2, “Antidiabetic compounds” (Cadila Healthcare Limited, priority 2006, dated 2014)
Read-outs that look alike come from different tables or passages of the source.

Experiments:
Human GLP-1 receptor = biological target: T1, Human GLP-1 receptor (Homo sapiens, UniProt P43220); type: cell-based
T1 construct: The full-length cDNA was cloned in pcDNA3.1(+); expressed in transfected cells
Summary of the method: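 Stably transfected CHO cells expressing human GLP-1R, passages 9-25, exposed to compounds for 30 min at 37 °C. Lysed in ice-cold 0.1 N HCl; total cAMP by immunoassay, protein by micro BCA; expressed as percent of water vehicle control, mean±SD.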

DPP IV = DPP IV (Homo sapiens, UniProt P27487); experiment: Stability against DPP IV enzyme; type: in vitro ADME; conditions: 2 μM, 37° C.; for half-life: read-out: half-life (t1/2) with DPP-IV enzyme
DPP IV, sequence (P27487 whole entry, species assumed): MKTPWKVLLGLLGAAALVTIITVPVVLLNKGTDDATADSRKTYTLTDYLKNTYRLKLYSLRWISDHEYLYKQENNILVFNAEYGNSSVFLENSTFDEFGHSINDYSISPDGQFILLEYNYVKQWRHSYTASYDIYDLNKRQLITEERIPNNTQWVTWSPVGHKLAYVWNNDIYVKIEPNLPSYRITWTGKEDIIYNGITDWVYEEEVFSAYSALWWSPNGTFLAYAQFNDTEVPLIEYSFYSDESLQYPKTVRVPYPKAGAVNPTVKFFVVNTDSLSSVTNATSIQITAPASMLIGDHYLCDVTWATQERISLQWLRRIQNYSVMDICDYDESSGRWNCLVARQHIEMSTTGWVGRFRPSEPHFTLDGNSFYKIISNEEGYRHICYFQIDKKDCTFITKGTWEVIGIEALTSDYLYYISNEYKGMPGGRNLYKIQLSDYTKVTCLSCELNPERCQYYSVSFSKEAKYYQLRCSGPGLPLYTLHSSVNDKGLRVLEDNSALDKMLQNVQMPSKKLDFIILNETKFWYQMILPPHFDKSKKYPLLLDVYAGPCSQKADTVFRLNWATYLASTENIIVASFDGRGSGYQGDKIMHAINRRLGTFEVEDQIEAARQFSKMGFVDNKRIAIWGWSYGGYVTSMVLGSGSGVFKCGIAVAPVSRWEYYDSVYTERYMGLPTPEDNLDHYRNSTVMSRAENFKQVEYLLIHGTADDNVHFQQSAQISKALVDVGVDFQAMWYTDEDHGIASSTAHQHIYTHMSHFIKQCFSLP
Experimental: (§1) Reactions were terminated by the addition of TFA/H2O (15 mL, 10% (v/v)). […] The column was equilibrated with TFA/H2O, at a flow rate of 1 mL/min. […] The absorbance was monitored at 206 nm using UV detector and peaks were collected manually prior to ESI-MS analysis.

[1] = Stability in human plasma; type: in vitro ADME; conditions: 2 μM, 37° C.; for half-life: human, plasma, read-out: half-life (t1/2) in human plasma
Experimental: as §1

[2] = Stability in simulated gastric fluid; type: in vitro ADME; conditions: 2 μM, 37° C., pH 1.5, pepsin; for half-life: simulated gi fluid, read-out: half-life (t1/2) in simulated gastric fluid
Experimental: as §1

[3] = Stability in simulated intestinal fluid; type: in vitro ADME; conditions: 2 μM, 37° C., pH 7.5; for half-life: simulated gi fluid, read-out: half-life (t1/2) in simulated intestinal fluid
Experimental: as §1

[4] = Stability against liver microsomes; type: in vitro ADME, human; conditions: 2 μM, 37° C.; for half-life: human, microsomes, read-out: half-life (t1/2) with liver microsomes
Experimental: as §1

T1 sequence (P43220 24-463): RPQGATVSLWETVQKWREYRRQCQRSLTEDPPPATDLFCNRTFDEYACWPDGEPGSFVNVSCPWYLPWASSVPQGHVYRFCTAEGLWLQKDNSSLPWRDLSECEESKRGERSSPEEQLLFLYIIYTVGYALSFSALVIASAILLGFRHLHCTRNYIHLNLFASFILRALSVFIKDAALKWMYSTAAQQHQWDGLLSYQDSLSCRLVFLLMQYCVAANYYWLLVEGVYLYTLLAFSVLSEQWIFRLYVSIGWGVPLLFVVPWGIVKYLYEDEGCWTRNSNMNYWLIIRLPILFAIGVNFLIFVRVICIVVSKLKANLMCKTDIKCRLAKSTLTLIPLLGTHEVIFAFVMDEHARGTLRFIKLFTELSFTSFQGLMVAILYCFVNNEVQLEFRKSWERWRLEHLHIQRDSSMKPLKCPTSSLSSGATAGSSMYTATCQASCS

| SMILES | Human GLP-1 R activity (cAMP release), % activity with respect to control (Human GLP-1 receptor; 1 nM test compound) [%] | Human GLP-1 R activity (cAMP release), % activity with respect to control (Human GLP-1 receptor; 10 nM test compound) [%] | Human GLP-1 R activity (cAMP release), % activity with respect to control (Human GLP-1 receptor; 100 nM test compound) [%] | Human GLP-1 R activity (cAMP release), % activity with respect to control (Human GLP-1 receptor; 1 μM test compound) [%] | Human GLP-1 R activity (cAMP release), % activity with respect to control (Human GLP-1 receptor; 10 μM test compound) [%] | % degradation in 24 h when incubated with DPP-IV enzyme (DPP IV) [%] | half-life (DPP IV) [h] | % degradation in 24 h when incubated with human plasma [1] [%] | half-life [1] [h] | % degradation in 24 h when incubated with simulated gastric fluid [2] [%] | half-life [2] [h] | % degradation in 24 h when incubated with simulated intestinal fluid [3] [%] | half-life [3] [h] | half-life (t1/2) with liver microsomes [4] | % degradation in 24 h when incubated with liver microsomes [4] [%] | half-life [4] [h] |
| --- | --- | --- | --- | --- | --- | --- | --- | --- | --- | --- | --- | --- | --- | --- | --- | --- |
| CCc1cc(OC)ccc1-c1ccc(CC(NC(=O)[C@H](CC(=O)O)NC(=O)[C@H](CO)NC(=O)[C@@H](NC(=O)C(C)(Cc2ccccc2F)NC(=O)[C@@H](NC(=O)CNC(=O)[C@H](CCC(N)=O)NC(=O)C(C)(C)NC(=O)[C@@H](N)Cc2c[nH]cn2)[C@@H](C)O)[C@@H](C)O)C(=O)NC(Cc2ccc(-c3ccccc3C)nc2)C(N)=O)cc1 (single isomer, unassigned) [compound 30] | 93 ± 0.11 | 99 ± 0.09 | 99 ± 0.06 | 99 ± 0.14 | 99 ± 0.19 | 00 | > 24 | 00 | > 24 | 00 | > 24 | 00 | > 24 | (5) h | 33 |  |
| CCc1cc(OC)ccc1-c1ccc(CC(NC(=O)[C@H](CC(=O)O)NC(=O)[C@H](CO)NC(=O)[C@@H](NC(=O)C(C)(Cc2ccccc2F)NC(=O)[C@@H](NC(=O)CNC(=O)[C@H](CCC(N)=O)NC(=O)C2(NC(=O)[C@@H](N)Cc3c[nH]cn3)CC2)[C@@H](C)O)[C@@H](C)O)C(=O)NC(Cc2ccc(-c3ccccc3C)nc2)C(N)=O)cc1 (single isomer, unassigned) [compound 34] | 99 ± 0.12 | 99 ± 0.08 | 99 ± 0.11 | 99 ± 0.12 | 99 ± 0.16 | 00 | > 24 | 00 | > 24 | 00 | > 24 | 00 | > 24 | (5) h | 32 |  |
| CCc1cc(OC)ccc1-c1ccc(CC(NC(=O)[C@H](CC(=O)O)NC(=O)[C@H](CO)NC(=O)[C@@H](NC(=O)[C@H](Cc2ccccc2)NC(=O)[C@@H](NC(=O)CNC(=O)[C@H](CCC(N)=O)NC(=O)C(C)(C)NC(=O)[C@@H](N)Cc2c[nH]cn2)[C@@H](C)O)[C@@H](C)O)C(=O)NC(Cc2ccc(-c3ccccc3F)cc2)C(N)=O)cc1 (single isomer, unassigned) [compound 15] | 66 ± 0.022 | 97 ± 0.46 | 99 ± 0.41 | 99 ± 0.66 | 99 ± 0.03 | 00 | > 24 | 00 | > 24 | 45 | 4 | 00 | > 24 |  | 85 | 2 |
| CCc1cc(OC)ccc1-c1ccc(CC(NC(=O)[C@H](CC(=O)O)NC(=O)[C@H](CO)NC(=O)[C@@H](NC(=O)C(C)(Cc2ccccc2F)NC(=O)[C@@H](NC(=O)CNC(=O)[C@H](CCC(N)=O)NC(=O)C2(NC(=O)[C@@H](N)Cc3c[nH]cn3)CC2)[C@@H](C)O)[C@@H](C)O)C(=O)NC(Cc2ccc(-c3ccccc3C(F)(F)F)cc2)C(N)=O)cc1 (single isomer, unassigned) [compound 36] | 96 ± 0.09 | 99 ± 0.07 | 99 ± 0.04 | 99 ± 0.01 | 99 ± 0.08 | 00 | > 24 | 00 | > 24 | 00 | > 24 | 00 | > 24 | (5) h | 35 |  |
| CCc1cc(OC)ccc1-c1ccc(CC(NC(=O)[C@H](CC(=O)O)NC(=O)[C@H](CO)NC(=O)[C@@H](NC(=O)[C@H](Cc2ccccc2)NC(=O)[C@@H](NC(=O)CNC(=O)[C@H](CCC(N)=O)NC(=O)C2(NC(=O)[C@@H](N)Cc3c[nH]cn3)CC2)[C@@H](C)O)[C@@H](C)O)C(=O)NC(Cc2ccc(-c3ccccc3C)cc2)C(N)=O)cc1 (single isomer, unassigned) [compound 17] | 78 ± 0.12 | 99 ± 0.15 | 99 ± 0.18 | 99 ± 0.03 | 99 ± 0.09 | 00 | > 24 | 00 | > 24 | 49 | 4 | 00 | > 24 |  | 82 | 2 |
